Measured values from patent US4540705A, “Antidepressant imidazolines and related compounds” (priority 1983, dated 1985).
Read-outs that look alike come from different tables or passages of the source.

Columns and labels:
[1] = molecular target: T1, α2 -adrenergic binding sites (receptor) (Rattus norvegicus, UniProt P22909); assay: Tritiated Clonidine Receptor Binding Assay; settings: for inhibition at 1 µM: at 1000 nM, read-out: Clonidine [^3 H] Binding % I.
T1 construct: to displace ^3 H-clonidine (an α2 -adrenergic agonist) from membranes of rat brain; from tissue; host or cells: rat cerebral cortex homogenate (membranes)
T1 sequence (P22909 1-465): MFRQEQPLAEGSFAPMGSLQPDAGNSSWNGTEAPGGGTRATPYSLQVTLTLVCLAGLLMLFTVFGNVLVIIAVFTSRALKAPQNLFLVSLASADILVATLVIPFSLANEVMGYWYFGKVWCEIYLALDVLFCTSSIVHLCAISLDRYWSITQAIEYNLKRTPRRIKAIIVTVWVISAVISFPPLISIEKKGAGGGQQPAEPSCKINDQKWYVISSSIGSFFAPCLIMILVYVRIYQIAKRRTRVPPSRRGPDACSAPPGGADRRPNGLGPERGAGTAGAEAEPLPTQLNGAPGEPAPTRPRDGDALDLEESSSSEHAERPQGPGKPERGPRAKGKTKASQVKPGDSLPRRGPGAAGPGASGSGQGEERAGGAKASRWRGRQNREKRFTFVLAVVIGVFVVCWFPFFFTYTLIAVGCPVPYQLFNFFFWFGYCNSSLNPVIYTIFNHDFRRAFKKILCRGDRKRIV
Description: (§1) The α2 -adrenergic antagonist activity is measured by three screening methods, described as follows:
(1) Tritiated Clonidine Receptor Binding Assay
Affinity is determined by assessing the ability of compounds to displace ^3 H-clonidine (an α2 -adrenergic agonist) from membranes of rat brain. Homogenates of rat cerebral cortex are incubated with 0.4 nM ^3 H-clonidine which binds to the α2 -adrenergic binding sites (receptor) present on the membranes of the homogenate. Compounds that bind to the α2 -adrenergic receptor, when added to the incubation mixture, will displace ^3 H-clonidine from its binding site, thereby diminishing the amount of bound radioactivity. The amount of ^3 H-clonidine still bound is quantitated by liquid scintillation spectrometry. The results are determined in terms of percent inhibition or as Ki values. Ki is a measure of the apparent affinity of the test substance for the α2 -adrenergic binding site, as determined by the method of Cheng and Prusoff, Biochemical Pharmacology 22, 3099 (1973).

[2] = test system: mice (α2 -adrenergic antagonism of clonidine); assay: In vivo Antagonism of Clonidine-induced Anti-nociception (phenyl-p-quinone writhing); settings: Mus musculus; for ED50: read-out: Antagonism of Clonidine Analgesia ED50 -p.o.
Description: as §1
(3) In vivo Antagonism of Clonidine-induced Anti-nociception
The intraperitoneal administration of phenyl-p-quinone (PPQ) to mice elicits a nociceptive response which consists of abdominal writhing and extension of the hind limbs. This writhing response is prevented in mice treated with clonidine. When an α2 -adrenergic antagonist is given prior to clonidine, the mice display the writhing response when PPQ is administered. To groups of thirty male mice for each experiment the test compound dissolved in 0.9% sodium chloride was administered either subcutaneously or orally. Clonidine (0.2 mg/kg) was administered orally when the test compound was given subcutaneously and subcutaneously when the test compound was administered orally. Twenty minutes after the administration of clonidine, PPQ (3 mg/kg) was given intraperitoneally. […] The number of mice that writhed at least three times during the five minute observation period was counted. The number of mice that writhed was scored for each dose of antagonist, and the percentage reversal of clonidine-induced anti-nociception (analgesia) was calculated by dividing the number of animals writhing by the total number of test animals and multiplying the quotient by 100.

[3] = molecular target: T2, α2 -adrenergic, isolated rat vas deferens (Rattus norvegicus, UniProt P22909); assay: Vas Deferens Assay: antagonism of clonidine-induced inhibition of twitch height; assay type: biochemical
T2 construct: isolated, electrically stimulated rat vas deferens; from tissue; host or cells: isolated rat vas deferens
T2 sequence (P22909 1-465): T1 sequence (P22909 1-465)
Description: as §1
Activity is determined by assessing the ability of compounds to antagonize the inhibition of twitch height induced by clonidine in the isolated, electrically stimulated rat vas deferens. […] The tissue is then rinsed to remove clonidine and, when the twitch height has returned to normal, the test compound is added. The ability of clonidine to inhibit twitch height is then again determined, and the clonidine-induced inhibition in the presence of the test compound is used to calculate percent antagonism of clonidine. Results are recorded in terms of percent inhibition at the concentration of antagonist used, or as pA2 values, determined by the Schild method; cf. Tallarida and Murray, Manual of Pharmacologic Calculations, pp. 29-32 (Springer-Verlag, 1981).

mice = assay: Prevention of tetrabenazine-induced ptosis in mice; assay type: in vivo; settings: Mus musculus, read-out: Tetrabenazine Reversal ED50
Description: A further measure of potential andidepressant activity was obtained by determining the effectiveness of the compounds of the invention in prevention of tetrabenazine-induced ptosis in mice by the method described by Barnett et al., Int. J. Neuropharmacol. 8, 353-360 (1969). The results were expressed in terms of ED50 values (effective dose in 50% of the animals).

male rats = assay: Diuretic activity in male rats in comparison with hydrochlorothiazide; assay type: in vivo, rat
α2 -adrenergic [4] = assay: α2 -adrenergic antagonist activity (general statement)
Description: On the other hand, the sympathomimetic activity characteristic of the latter group of compounds is not present in the compounds of the present invention.
The α2 -adrenergic antagonist activity is measured by three screening methods, described as follows: […]

α2 -adrenergic [5] = settings: prior-art compounds; cited from earlier work
[6] = 0.4 nM ^3 H-clonidine, rat cerebral cortex homogenate, read-out: Clonidine [^3 H] Binding Ki
[7] = sc, 100 mg/kg s.c., read-out: Antagonism of Clonidine Analgesia % A.
[8] = Schild method, clonidine 10 nM, read-out: Rat Vas Deferens pA2 (converted)
[9] = po, 100 mg/kg p.o., read-out: Antagonism of Clonidine Analgesia % A.
[10] = 0.4 nM ^3 H-clonidine, rat cerebral cortex homogenate
[11] = rat, at 500 nM, clonidine 10 nM
[12] = sc, 30 mg/kg s.c., read-out: Antagonism of Clonidine Analgesia % A.

C[C@@H]1c2ccccc2CC[C@H]1CC1=NCCN1 (relative stereo) [15(d), trans-4,5-Dihydro-2-[(1,2,3,4-tetrahydro-1-methyl-2-naphthalenyl)methyl]-1H-imidazole]
Ki [1, 6]: 401 nM | responders at 100 mg/kg [2, 7]: 30%

C[C@@H]1c2ccccc2CC[C@@H]1CC1=NCCN1 (relative stereo) [Example 16, cis-4,5-Dihydro-2-[(1,2,3,4-tetrahydro-1-methyl-2-naphthalenyl)methyl]-1H-imidazole]
Ki [1, 6]: 135 nM | Kb [3, 8]: 60.3 nM

CC1=C(CC2=NCCN2)CCc2ccccc21 [1(b), 2-[(3,4-Dihydro-1-methyl-2-naphthalenyl)methyl]-4,5-dihydro-1H-imidazole]
Ki [1, 6]: 11.9 nM | Kb [3, 8]: 63.1 nM | responders at 100 mg/kg [2, 9]: 50% | ED50 ([2]; po): 111 mg/kg | ED50 (mice): 18 mg/kg

CC1=C(CC2=NCCN2C)CCc2ccccc21 [4(b), 2-[(3,4-Dihydro-1-methyl-2-naphthalenyl)methyl]-4,5-dihydro-1-methyl-1H-imidazole]
inhibition at 1 µM [1, 10]: 60% | Rat Vas Deferens % A. ([3]; at 500 nM, clonidine 10 nM, 0.5 µM): 3% | inhibition at 0.5 µM [3, 11]: 2% | responders at 100 mg/kg [2, 7]: 20%

CC(C1=Cc2ccccc2CC1)C1=NCCN1 (stereo not shown) [7(b), 2-[1-(3,4-Dihydro-2-naphthalenyl)ethyl]-4,5-dihydro-1H-imidazole]
Ki [1, 6]: 32 nM | Kb [3, 8]: 37.2 nM | responders at 30 mg/kg [2, 12]: 70%

COc1ccc2c(c1)CCC(CC1=NCCN1)=C2C [8(b), 2-[(3,4-Dihydro-6-methoxy-1-methyl-2-naphthalenyl)methyl]-4,5-dihydro-1H-imidazole]
inhibition at 1 µM [1, 10]: 53% | inhibition at 0.5 µM [3, 11]: 1%

CC1=C(CC2=NCCN2)Cc2ccccc21 [9(b), 4,5-Dihydro-2-[(3-methyl-1H-inden-2-yl)methyl]-1H-imidazole]
Ki [1, 6]: 7 nM | Kb [3, 8]: 19.5 nM | responders at 30 mg/kg ([2]; po, 30 mg/kg p.o., read-out: Antagonism of Clonidine Analgesia % A.): 10%

C1=C(CC2=NCCN2)Cc2ccccc21 [10(b), 4,5-Dihydro-2-[(1H-inden-2-yl)methyl]-1H-imidazole]
Ki [1, 6]: 76 nM | Kb [3, 8]: 64.6 nM | responders at 10 mg/kg ([2]; sc, 10 mg/kg s.c., read-out: Antagonism of Clonidine Analgesia % A.): 70%

Cc1c(CC2=NCCN2)ccc2ccccc12 [17(e), 4,5-Dihydro-2-[(1-methyl-2-naphthalenyl)methyl]-1H-imidazole]
Ki [1, 6]: 7 nM | Kb [3, 8]: 44.7 nM | ED50 ([2]; po): 27 mg/kg | responders at 100 mg/kg [2, 7]: 70% | ED50 (mice): 3 mg/kg

C1=C(CC2=NCCN2)CCc2ccccc21 [Example 2(b), 2-[(3,4-Dihydro-2-naphthalenyl)methyl]-4,5-dihydro-1H-imidazole]
Ki [1, 6]: 28 nM | Kb [3, 8]: 17.4 nM | ED50 ([2]; po): 33 mg/kg | responders at 100 mg/kg [2, 7]: 90% | ED50 (mice): 284 mg/kg

CC1=C(CC2=NCCCN2)CCc2ccccc21 [Example 3, 2-[(3,4-Dihydro-1-methyl-2-naphthalenyl)methyl]-1,4,5,6-tetrahydropyrimidine]
Ki [1, 6]: 334 nM

CCN1CCN=C1CC1=C(C)c2ccccc2CC1 [Example 5, 2-[(3,4-Dihydro-1-methyl-2-naphthalenyl)methyl]-1-ethyl-4,5-dihydro-1H-imidazole]
Ki [1, 6]: 548 nM | inhibition at 0.5 µM [3, 11]: 2% | responders at 100 mg/kg [2, 7]: 20%

CC1=C(CC2=NC(C)CN2)CCc2ccccc21 (stereo not shown) [Example 6, 2-[(3,4-Dihydro-1-methyl-2-naphthalenyl)methyl]-4,5-dihydro-4-methyl-1H-imidazole]
inhibition at 1 µM [1, 10]: 59% | inhibition at 0.001 µM ([3]; rat, at 1 (head: Conc. (nM)), clonidine 10 nM): 3% | responders at 100 mg/kg [2, 7]: 20%

CC1=C(Cc2ncc[nH]2)CCc2ccccc21 [Example 11, 2-[(3,4-Dihydro-1-methyl-2-naphthalenyl)methyl]-1H-imidazole]
Ki [1, 6]: 88 nM | Kb [3, 8]: 120 nM | responders at 30 mg/kg [2, 12]: 60%

CC1=C(CC2=NCC(C)(C)CN2)CCc2ccccc21 [Example 12, 2-[(3,4-Dihydro-1-methyl-2-naphthalenyl)methyl]-1,4,5,6-tetrahydro-5,5-dimethylpyrimidine]
increase of sodium excretion, activity relative to hydrochlorothiazide (male rats; 30 mg/kg oral): 38% | increase of sodium excretion, activity relative to hydrochlorothiazide (male rats; 100 mg/kg oral): 94% | diuretic activity (in words) (male rats; in comparison with hydrochlorothiazide): found to possess diuretic activity | α2 -adrenergic antagonist activity (in words) (α2 -adrenergic [4]): apparently devoid of any significant α2 -adrenergic antagonist properties

c1ccc2cc(CC3=NCCN3)ccc2c1 [Example 18, 4,5-Dihydro-2-(2-naphthalenylmethyl)-1H-imidazole]
Ki [1]: 48 nM | Kb [3]: 21.4 nM | responders at 100 mg/kg [2, 9]: 80% | ED50 ([2]; po): 53 mg/kg | ED50 (mice): 27 mg/kg

c1ccc2c(c1)CCCC2C1=NCCN1 (stereo not shown) [tetrahydrozoline, 2-(1,2,3,4-tetrahydro-1-naphthyl)-2-imidazoline, reference compound]
α2 -adrenergic antagonist activity (in words) (α2 -adrenergic [4]): essentially devoid of such activity | α2 -adrenergic antagonist activity (in words, background section) (α2 -adrenergic [5]): do not possess α2 -adrenergic antagonist activity
